The labels stand for the following.
B1: Excitatory amino acid transporter 2 (Rattus norvegicus), P31596 (protein)
chain: MASTEGANNMPKQVEVRMHDSHLSSEEPKHRNLGMRMCDKLGKNLLLSLTVFGVILGAVCGGLLRLAAPIHPDVVMLIAFPGDILMRMLKMLILPLIISSLITGLSGLDAKASGRLGTRAMVYYMSTTIIAAVLGVILVLAIHPGNPKLKKQLGPGKKNDEVSSLDAFLDLIRNLFPENLVQACFQQIQTVTKKVLVAPPSEEANTTKAVISLLNETMNEAPEETKIVIKKGLEFKDGMNVLGLIGFFIAFGIAMGKMGEQAKLMVEFFNILNEIVMKLVIMIMWYSPLGIACLICGKIIAIKDLEVVARQLGMYMITVIVGLIIHGGIFLPLIYFVVTRKNPFSFFAGIFQAWITALGTASSAGTLPVTFRCLEDNLGIDKRVTRFVLPVGATINMDGTALYEAVAAIFIAQMNGVILDGGQIVTVSLTATLASIGAASIPSAGLVTMLLILTAVGLPTEDISLLVAVDWLLDRMRTSVNVVGDSFGAGIVYHLSKSELDTIDSQHRMHEDIEMTKTQSVYDDTKNHRESNSNQCVYAAHNSVVIDECKVTLAANGKSADCSVEEEPWKREK

This note sets out measurements from ChEMBL document CHEMBL1149969, “Conformationally restricted inhibitors of the high affinity -glutamate transporter” (Bioorg Med Chem Lett, 1993).

The first data set has as its target Excitatory amino acid transporter 2 (Rattus norvegicus) (UniProt P31596). As to the kind of experiment: Attenuation of the sodium-dependent uptake of [3H]D-aspartate into synaptosomes prepared from rat forebrain at 250 uM. The format is subcellular. Particulars: Brain.
The molecule `C=C(C)[C@H]1CN[C@H](C(=O)O)[C@H]1CC(=O)O` displayed a Control of 39%.
`CCOCC1[C@H](C(=O)O)CN[C@H]1C(=O)O` (stereo partly drawn) had a Control of 55%.
Same read-out and setting: next, `O=C(O)CC1[C@H](C(=O)O)CN[C@H]1C(=O)O` (stereo partly drawn): 95%.
`O=C(O)C[C@@H]1CN[C@H](C(=O)O)C1`: the Control was determined as 74%.
For the molecule `O=C(O)C[C@H]1CCN[C@@H]1C(=O)O`, the Control was determined as 74%.
Same read-out and setting: the result for `CC(C)[C@H]1CN[C@H](C(=O)O)[C@H]1CC(=O)O` (single isomer, unassigned) reads 25%.
The same measure, in the same setting: the result for `O=C(O)[C@@H]1CCN[C@H]1C(=O)O` (stereo in doubt; form 1) reads 81%.
Same read-out and setting: next, `O=C(O)[C@@H]1CN[C@@H](C(=O)O)C1` (stereo in doubt; form 1) [listing 1 of 2 here]: 0%.
Molecule `O=C(O)[C@@H]1CN[C@H](C(=O)O)C1` (stereo in doubt; form 1) showed a Control of 105%.
On the same count and under the same terms, next, `O=C(O)[C@@H]1CN[C@H]1C(=O)O` (stereo in doubt; form 1): 109%.
The same measure, in the same setting: the result for `O=C(O)[C@H]1NCC[C@H]1C(=O)O` (stereo in doubt; form 1) reads 38%; that for `O=C(O)[C@H]1NC[C@H]1C(=O)O` (stereo in doubt; form 1), 53%.
Same read-out and setting: next, `O=C(O)[C@@H]1CCN[C@H]1C(=O)O` (stereo in doubt; form 2): 107%; `O=C(O)[C@@H]1CN[C@@H](C(=O)O)C1` (stereo in doubt; form 2): 54%.
`O=C(O)[C@@H]1CN[C@H](C(=O)O)C1` (stereo in doubt; form 2) registered a Control of 36%.
The same measure, in the same setting: the result for `O=C(O)[C@@H]1CN[C@H]1C(=O)O` (stereo in doubt; form 2) reads 100%.
On the same count and under the same terms, the result for `O=C(O)[C@H]1NCC[C@H]1C(=O)O` (stereo in doubt; form 2) reads 108%.
`O=C(O)[C@H]1NC[C@H]1C(=O)O` (stereo in doubt; form 2) gave a Control of 98%.

The next data set has the same target. As to the kind of experiment: Tested for the ability to attenuate the sodium-dependent uptake of [3H]D-aspartate (5 uM) into synaptosomes prepared from rat forebrain at 25 uM. Particulars: Brain. In kind it is subcellular.
Molecule `N[C@@H](CCC(=O)O)C(=O)O` came in with a Control of 40%.
`CC(C)[C@H]1CN[C@H](C(=O)O)[C@H]1CC(=O)O` (single isomer, unassigned) had a Control of 83%.
The same measure, in the same setting: next, `O=C(O)[C@@H]1CN[C@@H](C(=O)O)C1` (stereo in doubt; form 1) [listing 1 of 2 here]: 18%; `O=C(O)[C@H]1NCC[C@H]1C(=O)O` (stereo in doubt; form 1): 94%; `O=C(O)[C@H]1NC[C@H]1C(=O)O` (stereo in doubt; form 1): 96%.
Same read-out and setting: next, `O=C(O)[C@@H]1CN[C@@H](C(=O)O)C1` (stereo in doubt; form 2): 88%; `O=C(O)[C@@H]1CN[C@H](C(=O)O)C1` (stereo in doubt; form 2): 82%.

The species entered for the next data set is Rattus norvegicus. The experiment in a line: Tested for the competitive inhibitory activity against D-aspartate transport in rat synaptosomes. In kind it is functional, Brain.
Settings: not given
By Ki is commonly meant a measure of affinity in units of concentration, obtained from inhibition or displacement. High values mean weaker binding, low ones tighter binding. `O=C(O)[C@@H]1CN[C@@H](C(=O)O)C1` (stereo in doubt; form 1) [listing 2 of 2 here] had a Ki of 1300 nM. In other words, the single-digit micromolar range.

Compound in another data set: O=C(O)[C@@H]1CN[C@@H](C(=O)O)C1
As to the kind of experiment: Tested for the competitive inhibitory activity against L-glutamate transport in rat synaptosomes. As to conditions: Brain. The format is subcellular.
Usually Km stands for the substrate concentration at which the rate is half of its maximum. In the case of B1, the Km stood at 3 µM.

Molecular target in another data set: not listed separately
As to the kind of experiment: The compound was tested for binding affinity towards Excitatory amino acid receptors of rat brain synaptosomes; IE means ineffective.
Settings: not given
The format is subcellular.
In the case of `O=C(O)[C@@H]1CN[C@@H](C(=O)O)C1` (stereo in doubt; form 1) [listing 2 of 2 here], the Ki entry is recorded as “Ineffective”.
